Measurements published in patent US20240383882A1 (Ecstasy LLC, priority 2020, published 2024).
Where a name gives a salt, the structure may show the parent alone. Read-outs that look alike come from different tables or passages of the source.

Tested on: male C57BL/6 mice
Experiment: 55° C. warm-water tail-flick test (antinociception)
Assay type: in vivo
Conditions: Mus musculus
Method in brief: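 Mice with baseline tail-flick latency within 2 s at 55° C received compound s.c. and were retested at 30, 60, 90 and 120 min. % antinociception = 100×(test−control latency)/(20−control latency); ED50 in mg/kg.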

[1] = half maximal effective dose in mice, using one of: warm water tail-flick test, spared nerve injury, chronic constriction injury, or Complete Freund's adjuvant induced inflammatory pain (not stated which per compound), read-out: Biological Activity (ED50)
[2] = sc, 0.5 h, compounds of Table I, s.c., 30 min, 55° C. water, configuration tested as in Table II, read-out: ED50 (mg/kg) at 30 min on C57BL/6 mice in Warm-water Tail-flick Test

Q: How did the ED50 [1] turn out when Cc1ccc(N(C)N2CC[C@@](CO)(CCc3ccccc3)C2)cn1 [Compound 68] was run?
A: > 50 mg/kg

Q: For CC(C)(c1ccccn1)N1CC[C@@](CCc2ccc(C#N)c(F)c2)(C(=O)C(F)(F)F)C1 [Compound 105, (R)-2-fluoro-4-(2-(1-(2-(pyridin-2-yl)propan-2-yl)-3-(2,2,2-trifluoroacetyl)pyrrolidin-3-yl)ethyl) benzonitrile], which ED50 [1] is on record?
A: > 50 mg/kg

Q: For CC(C)(c1ccccn1)N1CC[C@@](CCc2ccc(C#N)cc2)(c2ncc(C(F)(F)F)[nH]2)C1 [Compound 108, (R)-4-(2-(1-(2-(pyridin-2-yl)propan-2-yl)-3-(5-(trifluoromethyl)-1H-imidazol-2-yl)pyrrolidin-3-yl)ethyl) benzonitrile], which ED50 [1] is on record?
A: > 50 mg/kg

Q: With CCOCC1(CCn2c(=O)[nH]c3cc(F)c(F)cc32)CCN(C(C)(C)c2ccc(C)nc2)C1 (single isomer, unassigned) [Compound 99] as the compound, how does the ED50 [2] read?
A: ≤ 30 mg/kg

Q: CC(C)C(O)[C@]1(CCc2ccc(C#N)cc2)CCN(C(C)(C)c2ccccn2)C1 (single isomer, unassigned) [Compound 61] was tested. Which ED50 [1] did it give?
A: > 50 mg/kg

Q: Which ED50 [1] does the source give for CC(C)(c1ccccn1)N1CC[C@](CO)(CCc2ccc(C#N)s2)C1 [Compound 147, (R)-5-(2-(3-(hydroxymethyl)-1-(2-(pyridin-2-yl)propan-2-yl)pyrrolidin-3-yl)ethyl)thiophene-2-carbonitrile] here?
A: > 50 mg/kg

Q: For Cc1ccc(S(=O)(=O)NC(c2ccccn2)C2(CCc3ccc(F)s3)CCN(C(C)(C)c3ccc(C)nc3)C2)cc1 (single isomer, unassigned) [Compound 321], which ED50 [2] is on record?
A: ≤ 30 mg/kg

Q: How did the ED50 (sc, 0.5 h, compounds of Table V, s.c., 30 min, 55° C. water, read-out: ED50 (mg/kg) at 30 min on C57BL/6 mice in Warm-water Tail-flick Test (same conditions as Table II)) turn out when CCOCC1(CCc2ccccc2)CCN(Cc2ccc(NC(=O)OC)cc2)CC1 [Compound 24] was run?
A: > 50 mg/kg

Q: With CC(O)[C@]1(CCc2ccc(C#N)cc2)CCN(C(C)(C)c2ccc(C(F)(F)F)nc2)C1 (single isomer, unassigned) [Compound 214, 4-(2-((R)-3-((R or S)-1-hydroxyethyl)-1-(2-(6-(trifluoromethyl)pyridin-3-yl)propan-2-yl)pyrrolidin-3-yl)ethyl) benzonitrile] as the compound, how does the ED50 [1] read?
A: ≤ 30 mg/kg

Q: For CCOC[C@]1(CCc2ccc(C#N)cc2)CCN(C(c2cccnc2)c2cccnc2)C1 [Compound 10, (R)-4-(2-(1-(di(pyridin-3-yl)methyl)-3-(ethoxymethyl)pyrrolidin-3-yl)ethyl) benzonitrile], which ED50 [1] is on record?
A: > 50 mg/kg

Q: Which ED50 [1] does the source give for COc1cccc(C(C)(C)N2CC[C@@](CCc3ccc(C#N)cc3)(C(=O)O)C2)n1 [Compound 158, (R)-3-(4-cyanophenethyl)-1-(2-(6-methoxypyridin-2-yl)propan-2-yl)pyrrolidine-3-carboxylic acid] here?
A: > 50 mg/kg

Q: With CC(C)(c1ccccn1)N1CC[C@@](/C=C/c2ccc(C(F)(F)F)o2)(COCc2ccccc2)C1 [Compound 188, (S,E)-2-(2-(3-((benzyloxy)methyl)-3-(2-(5-(trifluoromethyl)furan-2-yl)vinyl)pyrrolidin-1-yl)propan-2-yl)pyridine] as the compound, how does the ED50 [1] read?
A: > 50 mg/kg

Q: Which ED50 [1] does the source give for Cc1ccc(C(C)(C)N2CC[C@@](CCc3ccc(C#N)cc3)(COCC(F)(F)F)C2)cn1 [Compound 26, (R)-4-(2-(1-(2-(6-methylpyridin-3-yl)propan-2-yl)-3-((2,2,2-trifluoroethoxy)methyl)pyrrolidin-3-yl)ethyl)benzonitrile] here?
A: > 50 mg/kg

Q: Which ED50 [1] does the source give for CCC(C)(c1ccc(S(C)(=O)=O)cc1)N1CC[C@@](CCc2ccc(F)cc2)(COCc2ccccc2)C1 (stereo partly drawn) [Compound 34, (3R)-3-((benzyloxy)methyl)-3-(4-fluorophenethyl)-1-(2-(4-(methylsulfonyl)phenyl)butan-2-yl)pyrrolidine] here?
A: > 50 mg/kg

Q: How did the ED50 [2] turn out when Cc1ccc(C(C)(C)N2CCC(CCc3ccc(F)s3)(CNC(=O)Nc3ccccc3)C2)cn1 (single isomer, unassigned) [Compound 43] was run?
A: ≤ 30 mg/kg

Q: Which ED50 [1] does the source give for CC1(C)COC1[C@]1(CCc2ccc(C#N)cc2)CCN(Cc2ccc(C#N)cc2)C1 (single isomer, unassigned) [Compound 204, 4-(2-((R)-1-(4-cyanobenzyl)-3-((R or S)-3,3-dimethyloxetan-2-yl)pyrrolidin-3-yl)ethyl) benzonitrile] here?
A: ≤ 30 mg/kg

Q: With CCOCC1(Cn2cnc3cnccc32)CCN(C(C)(C)c2ccc(C)nc2)C1 (single isomer, unassigned) [Compound 85, (R or S)-1-((3-(ethoxymethyl)-1-(2-(6-methylpyridin-3-yl)propan-2-yl)pyrrolidin-3-yl)methyl)-1H-imidazo[4,5-c]pyridine citrate] as the compound, how does the ED50 [2] read?
A: ≤ 30 mg/kg

Q: With CC(C)(c1ccccn1)N1CC[C@@](CCc2ccccc2C#N)(COCc2ccccc2)C1 [Compound 126, (R)-2-(2-(3-((benzyloxy)methyl)-1-(2-(pyridin-2-yl)propan-2-yl)pyrrolidin-3-yl)ethyl) benzonitrile] as the compound, how does the ED50 [1] read?
A: > 50 mg/kg

Q: Which ED50 [1] does the source give for CC(C)(c1ccccn1)N1CC[C@](CO)(CCc2ccc(S(C)(=O)=O)cc2)C1 [Compound 53] here?
A: > 50 mg/kg

Q: CC(C)(c1ccccn1)N1CC[C@@](CCc2ccc(C#N)s2)(C(=O)C(F)(F)F)C1 [Compound 154, (R)-5-(2-(1-(2-(pyridin-2-yl)propan-2-yl)-3-(2,2,2-trifluoroacetyl)pyrrolidin-3-yl)ethyl)thiophene-2-carbonitrile] was tested. Which ED50 [1] did it give?
A: > 50 mg/kg

Q: Which ED50 [1] does the source give for CC(C)(c1ccc(Cl)cc1)N1CC[C@@](CCc2ccc(S(C)(=O)=O)cc2)(C(O)C(F)(F)F)C1 (single isomer, unassigned) [Compound 222, (R or S)-1-((R)-1-(2-(4-chlorophenyl)propan-2-yl)-3-(4-(methylsulfonyl)phenethyl)pyrrolidin-3-yl)-2,2,2-trifluoroethan-1-ol] here?
A: > 50 mg/kg

Q: Which ED50 [1] does the source give for CC(C)(c1ccccn1)N1CC[C@](C#N)(CCc2ccc(C#N)cc2)C1 [Compound 179, (R)-3-(4-cyanophenethyl)-1-(2-(pyridin-2-yl)propan-2-yl)pyrrolidine-3-carbonitrile] here?
A: > 50 mg/kg

Q: CC(C)(c1ccccn1)N1CC[C@@](CCc2cccc(C#N)c2)(COCc2ccccc2)C1 [Compound 125, (R)-3-(2-(3-((benzyloxy)methyl)-1-(2-(pyridin-2-yl)propan-2-yl)pyrrolidin-3-yl)ethyl) benzonitrile] was tested. Which ED50 [1] did it give?
A: > 50 mg/kg

Q: How did the ED50 [1] turn out when N#Cc1ccc(CC[C@@]2(C3OCC3(F)F)CCN(Cc3ccc(Cl)cc3)C2)cc1 (single isomer, unassigned) [Compound 199, 4-(2-((R)-1-(4-chlorobenzyl)-3-((R or S)-3,3-difluorooxetan-2-yl)pyrrolidin-3-yl)ethyl) benzonitrile] was run?
A: ≤ 30 mg/kg

Q: How did the ED50 [1] turn out when CC(C)(c1ccccn1)N1CC[C@@](CCc2ccc(C#N)cc2)(C(O)(C(F)(F)F)C(F)(F)F)C1 [Compound 119, (R)-4-(2-(3-(1,1,1,3,3,3-hexafluoro-2-hydroxypropan-2-yl)-1-(2-(pyridin-2-yl)propan-2-yl)pyrrolidin-3-yl)ethyl) benzonitrile] was run?
A: > 50 mg/kg

Q: Which ED50 [2] does the source give for Cc1ccc(C(C)(C)N2CCC(CCc3ccc(F)s3)(C(NS(C)(=O)=O)c3ccccn3)C2)cn1 (single isomer, unassigned) [Compound 319] here?
A: ≤ 30 mg/kg

Q: How did the ED50 [1] turn out when CCOC[C@]1(CCc2ccc(C#N)cc2)CCN(Cc2cccnc2)C1 [Compound 3, (R)-4-(2-(3-(ethoxymethyl)-1-(pyridin-3-ylmethyl)pyrrolidin-3-yl)ethyl) benzonitrile] was run?
A: ≤ 30 mg/kg

Q: For CC(C)(c1ccc(S(C)(=O)=O)cc1)N1CC[C@@](CCc2ccc(F)cc2)(COCc2ccccc2)C1 [Compound 33, (R)-3-((benzyloxy)methyl)-3-(4-fluorophenethyl)-1-(2-(4-(methylsulfonyl)phenyl)propan-2-yl)pyrrolidine], which ED50 [1] is on record?
A: > 50 mg/kg
